Twelve compounds from ChEMBL document CHEMBL1201862, “PubChem BioAssay data set” (2004) can be followed below.

For assay [1], the target named is Nucleotide-binding oligomerization domain-containing protein 2 (Homo sapiens, UniProt Q9HC29). The assay is described as follows: NOD2 signaling inhibitors, cell-based, luminescence, uHTS, HEK293 (AID 1566). In kind it is functional.
Assay [2] deals with HEK293. The assay can be described thus: cells. In kind it is functional, cell-based. To be noted: Homo sapiens.
The subject of assay [3] is HEK293. The assay is described as follows: cells. In kind it is functional, cell-based. To be noted: Homo sapiens. This is another data set of the same source.
For assay [4], the system named is Vero. The assay can be described thus: cells. It is filed as functional, cell-based. To be noted: Chlorocebus sabaeus.
For assay [5], the system named is HEK293. The assay is described as follows: NOD2 signaling inhibitors in MDP-stimulated cells, cell-based, uHTS, luminescence (AID 2001). In kind it is functional. To be noted: Homo sapiens.
Assay [6] has as its system HEK293. The assay can be described thus: cells. It is filed as functional, cell-based. To be noted: Homo sapiens. This is another data set of the same source.
Assay [7] is described as follows: inhibitors of intracellular T. cruzi replication, confirmation, NIH3T3 host cells, beta-gal luminescence (AID 2044).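 Further: intracellular parasites grown in NIH/3T3 mouse fibroblasts as host cells; luminescent beta-galactosidase reporter signal from transgenic T. cruzi replicating inside host cells; inhibitors lower the luminescence signal.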 In kind it is functional, cell-based.
Another assay addresses Paired box protein Pax-8 (Homo sapiens, UniProt Q06710). The assay can be described thus: inhibitors of PAX8-driven TPO luciferase reporter, dose response, RMG-I cells, cherry-pick (AID 687027).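 Further: luciferase reporter driven by Pax8 target thyroperoxidase promoter measured by SteadyGlo luminescence.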 In kind it is functional, cell-based.
The nature of assay [8]: cytotoxicity toward NIH3T3 fibroblasts, dose response, counter-screen, cell-based, ATP luminescence, mouse fibroblasts (AID 2010).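 Further: cells exposed to compound for about 90 hours before reading.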 It is filed as functional. In general terms: Counterscreens check selectivity or assay interference.
The next assay deals with INS1. The assay is described as follows: beta cell apoptosis inhibitors, cytokine rescue, dose response, luminescence, retest (AID 449756).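 Further: cell death triggered by IL-1 beta plus TNF-alpha plus IFN-gamma mixture; protective hits raise ATP signal compared with cytokine alone wells.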 In kind it is functional, cell-based. To be noted: Rattus norvegicus.
The subject of assay [9] is HEK293. The assay is described as follows: NOD1 signaling inhibitors, primary screen, cell-based, luminescence, uHTS (AID 1578). It is filed as functional. The following applies: Homo sapiens.
The test system of assay [10] is Vero. The assay can be described thus: cells. It is filed as functional. The following applies: Chlorocebus sabaeus.
A short description of assay [11]: Vero E6 cell cytotoxicity, dose response, cytotoxicity control for non-replicating M. tuberculosis project, secondary assay (AID 492998). In kind it is functional, VeroE6. The following applies: Vero C1008.
The nature of assay [12]: HepG2 cell cytotoxicity, dose response, cytotoxicity control for non-replicating M. tuberculosis project (AID 489018). In kind it is functional. To be noted: Mycobacterium tuberculosis.
Assay [13] is described as follows: THP-1 cell cytotoxicity, dose response, cytotoxicity control for non-replicating M. tuberculosis project (AID 489025). It is filed as functional.
In another assay the test system is Streptococcus. The assay can be described thus: Group A Streptococcus viability loss, dose response, counter-screen for streptokinase expression inhibitor project, luminescence, BacTiterGlo (AID 1915).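 Further: potency for reduction of bacterial viability or growth.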 In kind it is functional, organism-based.
Assay [14] deals with Streptococcus sp. 'group A'. The assay can be described thus: growth inhibition of control SK(-) GAS strain, dose response, counter-screen for streptokinase expression inhibitor project, luminescence, kanamycin, BacTiterGlo, confirmation (AID 1900). It is filed as functional, organism-based.
The next assay is described as follows: cells. It is filed as functional.
For a further assay, the target named is Protein Rev (Human immunodeficiency virus type 1 group M subtype B (isolate HXB2)(HIV-1), UniProt P04618). The assay can be described thus: inhibitors of Rev binding to RRE RNA, dose response, biochemical, fluorescence polarization, HIV-1 (AID 434976). Further details: species or system Human immunodeficiency virus 1. (In general: In fluorescence polarisation assays a small probe gives low polarisation when free and higher when bound to something large.)

The target in assay [15] is T1, Zinc finger protein mex-5 (Caenorhabditis elegans, UniProt Q9XUB2).
T1 sequence (Q9XUB2 whole entry): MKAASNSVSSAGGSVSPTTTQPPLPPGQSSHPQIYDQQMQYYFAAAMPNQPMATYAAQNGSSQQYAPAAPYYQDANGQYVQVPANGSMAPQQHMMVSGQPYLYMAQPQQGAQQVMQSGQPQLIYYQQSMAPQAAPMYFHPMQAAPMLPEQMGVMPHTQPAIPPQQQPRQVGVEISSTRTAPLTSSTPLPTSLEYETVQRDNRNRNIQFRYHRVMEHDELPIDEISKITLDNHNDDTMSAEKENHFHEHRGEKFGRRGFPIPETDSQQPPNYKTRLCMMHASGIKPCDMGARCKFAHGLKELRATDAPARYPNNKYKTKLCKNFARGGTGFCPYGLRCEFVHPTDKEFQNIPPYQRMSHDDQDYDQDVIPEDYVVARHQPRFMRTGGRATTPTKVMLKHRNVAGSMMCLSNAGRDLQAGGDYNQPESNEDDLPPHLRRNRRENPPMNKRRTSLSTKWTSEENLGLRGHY
The assay is described as follows: MEX-5/TCR-2 RNA interaction inhibitors, dose response, biochemical, C. elegans, fluorescence polarization (AID 1960).

Assay [16] concerns the target Female germline-specific tumor suppressor gld-1 (Caenorhabditis elegans, UniProt Q17339). The assay is described as follows: inhibitors of GLD-1 binding to TGE RNA, dose response, biochemical, fluorescence polarization, C. elegans (AID 2802).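 Further: fluorescence polarization of labeled TGE RNA bound by purified gld-1 protein.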
The target in assay [17] is T2, RNA-binding protein pos-1 (Caenorhabditis elegans, UniProt G5EF15).
T2 sequence (G5EF15 whole entry): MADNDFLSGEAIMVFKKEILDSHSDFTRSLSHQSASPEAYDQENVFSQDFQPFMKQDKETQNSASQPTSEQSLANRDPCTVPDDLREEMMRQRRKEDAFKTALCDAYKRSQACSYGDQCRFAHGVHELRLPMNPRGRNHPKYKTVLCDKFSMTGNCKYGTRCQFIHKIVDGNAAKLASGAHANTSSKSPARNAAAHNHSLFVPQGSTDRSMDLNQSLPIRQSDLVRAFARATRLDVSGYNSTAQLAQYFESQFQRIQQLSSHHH
The assay is described as follows: inhibitors of POS-1/mex-3 RNA binding, dose response, biochemical, fluorescence polarization (AID 1964).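 Further: purified POS-1 fused to maltose binding protein made in E. coli; potency of compounds blocking POS-1 binding to fluorescent RNA.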

In assay [18] the target is G-protein coupled receptor 55 (Homo sapiens, UniProt Q9Y2T6). The assay can be described thus: GPR55 agonists via beta-arrestin recruitment, primary screen, imaging, U2OS cells, beta-arrestin-GFP redistribution (AID 1961). In kind it is functional. For orientation: Recruitment of arrestin is a read-out of receptor activation apart from second messengers.
Assay [19] deals with Intestinal-type alkaline phosphatase (Homo sapiens, UniProt P09923). The assay can be described thus: Dose Response confirmation of uHTS hits from a small molecule inhibitors of human intestinal alkaline phosphatase via a luminescent assay. [Related pubchem assays (depositor defined):AID2544, AID2574]. In kind it is functional.
In the next assay the target is Nonstructural protein 1 (Influenza A virus, UniProt Q194T2). In kind it is functional, Influenza A virus (A/California/07/2009(H1N1)).
Assay [20] relates to Vero. The assay is described as follows: Vero cell cytotoxicity, cytotoxicity control for flavivirus capping enzyme inhibitors (AID 588742). To be noted: Chlorocebus sabaeus. In kind it is functional.
For assay [21], the target named is Acyl-homoserine lactone acylase PvdQ (Pseudomonas aeruginosa (strain LESB58), UniProt Q9I194). The assay can be described thus: P. aeruginosa PvdQ acylase inhibitors, dose response, biochemical, fluorescence, plate reader and imaging, cherry-picks (AID 493231).
Assay [22] in a line: Luminescence Cell-Based Dose Retest to Confirm Inhibitors of Cancer Stem Cells. [Related pubchem assays (depositor defined):AID2717, AID2721]. The following applies: Homo sapiens. In kind it is functional.
The nature of assay [23]: microbe, parasite or virus in culture. In kind it is functional. The following applies: Mycobacterium tuberculosis.
A further assay concerns the target Genome polyprotein (dengue virus type 2, UniProt P29990). The assay can be described thus: Dengue-2 NS5 methyltransferase inhibitors, primary screen, biochemical, confirmation dose response (AID 588689). It is filed as functional.
The next assay concerns the target Hexokinase HKDC1 (Homo sapiens, UniProt Q2TB90). The assay can be described thus: HKDC1 hexokinase inhibitors, dose response, biochemical, W721R variant (AID 504729). In kind it is functional.
The target in assay [24] is Neurotensin receptor type 1 (Homo sapiens, UniProt P30989). It is filed as functional.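 Further: Image-based confirmatory dose-response assay measuring agonist activity at NTR1; NTR1-expressing U2OS osteosarcoma cells imaged for beta-arrestin GFP spot formation; agonist potency where compounds increase beta-arrestin recruitment.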
The next assay concerns the target Melanocortin receptor 4 (Homo sapiens, UniProt P32245). In kind it is functional, cell-based.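 Further: Cell-based assay with luminescence read-out, confirmatory dose-response testing for agonist activity of biased ligands at MC4R; human U2OS cells with tagged receptor and beta-arrestin; potency of agonists that increase receptor coupling to beta-arrestin.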

Calls of active or inactive are those of the source. Where only a bound is given, the exact number is not on record here.

Chain of Nucleotide-binding oligomerization domain-containing protein 2 (Q9HC29 whole entry, the tested form may be a part): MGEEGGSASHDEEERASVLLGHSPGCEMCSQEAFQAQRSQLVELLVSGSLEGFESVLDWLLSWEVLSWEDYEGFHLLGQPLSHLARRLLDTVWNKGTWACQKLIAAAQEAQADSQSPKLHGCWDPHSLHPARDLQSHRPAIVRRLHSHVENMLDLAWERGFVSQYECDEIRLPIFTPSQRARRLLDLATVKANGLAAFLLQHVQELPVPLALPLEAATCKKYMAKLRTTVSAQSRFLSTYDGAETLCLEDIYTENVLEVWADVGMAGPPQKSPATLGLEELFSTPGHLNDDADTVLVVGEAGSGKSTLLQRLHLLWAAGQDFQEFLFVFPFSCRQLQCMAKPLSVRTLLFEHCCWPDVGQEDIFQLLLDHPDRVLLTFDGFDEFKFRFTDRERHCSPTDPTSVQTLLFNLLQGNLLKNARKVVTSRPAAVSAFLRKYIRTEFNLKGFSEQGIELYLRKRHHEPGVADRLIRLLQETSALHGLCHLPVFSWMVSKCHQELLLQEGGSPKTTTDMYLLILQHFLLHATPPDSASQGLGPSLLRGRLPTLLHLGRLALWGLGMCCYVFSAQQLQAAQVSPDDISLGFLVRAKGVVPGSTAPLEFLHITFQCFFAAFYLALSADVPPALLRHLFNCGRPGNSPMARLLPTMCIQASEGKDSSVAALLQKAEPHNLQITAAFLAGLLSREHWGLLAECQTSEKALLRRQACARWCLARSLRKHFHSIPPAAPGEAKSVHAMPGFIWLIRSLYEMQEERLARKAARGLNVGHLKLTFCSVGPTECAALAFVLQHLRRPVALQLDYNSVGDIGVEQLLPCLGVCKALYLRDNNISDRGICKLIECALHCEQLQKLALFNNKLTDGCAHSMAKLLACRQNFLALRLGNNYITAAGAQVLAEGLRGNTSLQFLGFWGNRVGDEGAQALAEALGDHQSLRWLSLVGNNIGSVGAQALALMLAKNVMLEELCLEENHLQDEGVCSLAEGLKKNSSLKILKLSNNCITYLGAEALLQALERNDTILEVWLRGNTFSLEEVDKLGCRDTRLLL
Chain of G-protein coupled receptor 55 (Q9Y2T6 whole entry): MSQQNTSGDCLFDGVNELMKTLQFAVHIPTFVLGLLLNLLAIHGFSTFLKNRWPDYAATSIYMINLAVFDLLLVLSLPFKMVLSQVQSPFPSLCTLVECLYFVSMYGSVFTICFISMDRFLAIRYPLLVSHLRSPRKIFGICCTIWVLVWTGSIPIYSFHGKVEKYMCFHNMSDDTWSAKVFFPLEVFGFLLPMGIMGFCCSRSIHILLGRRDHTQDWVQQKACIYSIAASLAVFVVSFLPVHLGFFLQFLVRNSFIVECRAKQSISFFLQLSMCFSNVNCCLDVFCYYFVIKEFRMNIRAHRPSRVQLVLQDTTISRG
Chain of Protein Rev (P04618 whole entry): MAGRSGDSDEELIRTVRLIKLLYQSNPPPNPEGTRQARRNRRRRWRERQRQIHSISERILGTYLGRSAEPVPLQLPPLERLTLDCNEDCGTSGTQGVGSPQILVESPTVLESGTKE
Chain of Female germline-specific tumor suppressor gld-1 (Q17339 whole entry): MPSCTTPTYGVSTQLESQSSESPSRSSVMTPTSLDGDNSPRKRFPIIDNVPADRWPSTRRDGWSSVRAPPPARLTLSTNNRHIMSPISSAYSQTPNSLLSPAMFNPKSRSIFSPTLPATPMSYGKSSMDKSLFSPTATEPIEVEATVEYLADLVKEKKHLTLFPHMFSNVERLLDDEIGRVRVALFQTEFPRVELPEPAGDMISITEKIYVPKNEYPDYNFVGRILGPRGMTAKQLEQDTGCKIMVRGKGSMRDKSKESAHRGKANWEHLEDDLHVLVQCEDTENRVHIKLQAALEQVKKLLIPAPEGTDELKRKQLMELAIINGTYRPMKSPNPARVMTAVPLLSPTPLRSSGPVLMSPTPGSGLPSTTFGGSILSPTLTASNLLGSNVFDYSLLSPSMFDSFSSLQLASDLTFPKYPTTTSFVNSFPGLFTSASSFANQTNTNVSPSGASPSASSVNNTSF
Chain of Neurotensin receptor type 1 (P30989 whole entry): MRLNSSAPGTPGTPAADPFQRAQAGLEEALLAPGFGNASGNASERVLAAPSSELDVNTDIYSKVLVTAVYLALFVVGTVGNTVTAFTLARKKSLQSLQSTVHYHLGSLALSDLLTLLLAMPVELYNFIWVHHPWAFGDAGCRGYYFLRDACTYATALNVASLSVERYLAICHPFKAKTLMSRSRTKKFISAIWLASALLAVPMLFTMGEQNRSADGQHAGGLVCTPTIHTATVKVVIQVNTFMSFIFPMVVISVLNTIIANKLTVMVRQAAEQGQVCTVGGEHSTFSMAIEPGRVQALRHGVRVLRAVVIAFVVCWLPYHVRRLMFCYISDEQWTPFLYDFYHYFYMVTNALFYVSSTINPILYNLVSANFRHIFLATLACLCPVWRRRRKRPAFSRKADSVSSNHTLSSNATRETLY
Chain of Genome polyprotein (P29990 2492-3391 limits assumed): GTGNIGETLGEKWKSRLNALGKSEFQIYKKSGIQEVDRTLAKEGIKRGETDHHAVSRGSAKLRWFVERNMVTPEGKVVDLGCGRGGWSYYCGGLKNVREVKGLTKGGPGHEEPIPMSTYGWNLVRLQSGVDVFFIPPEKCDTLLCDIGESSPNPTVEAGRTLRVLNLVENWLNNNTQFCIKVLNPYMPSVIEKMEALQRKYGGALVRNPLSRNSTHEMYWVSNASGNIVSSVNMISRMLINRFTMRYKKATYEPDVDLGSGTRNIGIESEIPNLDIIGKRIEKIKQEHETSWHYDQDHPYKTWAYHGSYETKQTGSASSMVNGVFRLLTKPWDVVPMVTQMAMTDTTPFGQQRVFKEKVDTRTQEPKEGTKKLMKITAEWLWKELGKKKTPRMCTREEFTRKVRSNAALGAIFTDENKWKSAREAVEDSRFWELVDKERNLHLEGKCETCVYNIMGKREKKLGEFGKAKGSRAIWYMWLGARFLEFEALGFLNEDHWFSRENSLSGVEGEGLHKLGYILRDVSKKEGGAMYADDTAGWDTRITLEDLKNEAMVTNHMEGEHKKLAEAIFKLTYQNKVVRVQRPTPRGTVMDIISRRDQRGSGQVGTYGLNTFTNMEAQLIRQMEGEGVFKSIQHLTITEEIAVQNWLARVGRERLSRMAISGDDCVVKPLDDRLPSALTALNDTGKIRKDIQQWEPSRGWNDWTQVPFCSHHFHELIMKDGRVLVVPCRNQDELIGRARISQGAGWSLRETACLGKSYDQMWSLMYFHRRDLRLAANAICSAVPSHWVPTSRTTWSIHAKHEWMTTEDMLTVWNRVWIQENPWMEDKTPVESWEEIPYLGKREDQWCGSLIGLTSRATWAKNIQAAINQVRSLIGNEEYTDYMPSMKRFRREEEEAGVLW
Chain of Nonstructural protein 1 (Q194T2 whole entry): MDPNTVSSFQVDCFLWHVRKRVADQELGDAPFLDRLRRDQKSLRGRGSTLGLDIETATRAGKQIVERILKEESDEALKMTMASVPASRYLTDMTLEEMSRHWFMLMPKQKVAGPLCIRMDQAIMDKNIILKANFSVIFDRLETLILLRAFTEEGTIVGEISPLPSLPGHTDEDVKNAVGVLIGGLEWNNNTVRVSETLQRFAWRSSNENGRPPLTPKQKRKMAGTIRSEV
Chain of Acyl-homoserine lactone acylase PvdQ (Q9I194 24-193 limits assumed): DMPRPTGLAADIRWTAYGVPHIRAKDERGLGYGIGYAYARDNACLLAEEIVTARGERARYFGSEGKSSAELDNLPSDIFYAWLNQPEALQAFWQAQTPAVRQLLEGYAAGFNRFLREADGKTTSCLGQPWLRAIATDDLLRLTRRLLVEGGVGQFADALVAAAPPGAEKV
Chain of Acyl-homoserine lactone acylase PvdQ (Q9I194 217-762 limits assumed): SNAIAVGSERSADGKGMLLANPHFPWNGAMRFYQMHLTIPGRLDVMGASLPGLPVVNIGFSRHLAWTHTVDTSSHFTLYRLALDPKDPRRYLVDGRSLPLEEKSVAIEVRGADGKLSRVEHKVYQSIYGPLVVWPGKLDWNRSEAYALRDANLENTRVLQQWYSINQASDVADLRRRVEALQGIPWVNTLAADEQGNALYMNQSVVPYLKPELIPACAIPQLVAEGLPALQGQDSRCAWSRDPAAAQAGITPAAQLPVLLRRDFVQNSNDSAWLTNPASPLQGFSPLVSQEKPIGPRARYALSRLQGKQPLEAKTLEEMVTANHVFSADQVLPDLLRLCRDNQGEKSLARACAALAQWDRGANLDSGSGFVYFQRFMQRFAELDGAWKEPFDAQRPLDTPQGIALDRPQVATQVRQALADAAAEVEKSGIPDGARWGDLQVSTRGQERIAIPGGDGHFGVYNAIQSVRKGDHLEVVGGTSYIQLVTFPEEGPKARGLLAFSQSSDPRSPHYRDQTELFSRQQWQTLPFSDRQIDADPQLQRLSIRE
Chain of Melanocortin receptor 4 (P32245 whole entry): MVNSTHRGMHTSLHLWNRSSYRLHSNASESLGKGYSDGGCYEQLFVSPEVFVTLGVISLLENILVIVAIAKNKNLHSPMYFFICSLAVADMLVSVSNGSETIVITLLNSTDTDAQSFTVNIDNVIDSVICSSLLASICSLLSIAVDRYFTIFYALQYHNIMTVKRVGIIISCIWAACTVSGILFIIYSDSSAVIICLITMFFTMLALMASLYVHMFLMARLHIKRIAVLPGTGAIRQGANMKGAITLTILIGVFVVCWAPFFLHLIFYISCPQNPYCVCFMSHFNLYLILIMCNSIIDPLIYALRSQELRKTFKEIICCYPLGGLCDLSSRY

One may read the EC50 as the midpoint of the concentration-response curve. Broadly, the IC50 is the point on the concentration scale where inhibition reaches its midpoint. By AC50 is commonly meant the concentration at which the activity in the assay is half-maximal. In the case of `C=C(C(=O)c1ccccc1)C(C(=C)C(=O)c1ccccc1)c1ccc(OC)cc1`, the EC50 in [1] is > 20 µM (inactive); in assay [7] it was 2.88 µM (active); in assay [8] it was 10.4 µM (active); in the assay on HEK293 [9], > 20 µM (inactive). Besides, the IC50 in the assay with HEK293 [2] is > 20 µM (inactive); with HEK293 [3], > 20 µM (inactive); in the assay on Vero [4], > 25 µM (active); in the assay with HEK293 [5], 5.4 µM (inactive); in the assay with HEK293 [6] it was 5.78 µM (active). In addition, the results for the AC50 on Paired box protein Pax-8 and in the assay on INS1 were 2.66 µM (active) and 6.58 µM (active), respectively. In the assay with Vero [10], the CC50 is 11.2 µM (active).
As for `O=C(NNC(=S)NC(=O)c1cn(-c2ccccc2)nc1-c1ccccc1)c1ccncc1`, the CC50 in assay [11] is 10 µM (active); in assay [12], > 20 µM (active); in assay [13], 13.6 µM (active); with Vero [10], 24.3 µM (active). Also, the EC50 was 0.94 µM (active) with Streptococcus and 0.239 µM (active) in assay [14]. Further, the IC50 in the assay with Vero [4] was 24.4 µM (active); in the assay “cells” it was 2.75 µM (active).
On to `Cc1c(O)ccc(-c2n[nH]c(C(=O)O)c2-c2nc3ccccc3s2)c1O`, for which the results for the half-inhibitory concentration (IC50) (at Protein Rev; in assay [16]) were > 75.4 µM (not active) and 5.41 µM (active), respectively. Besides, the EC50 is 14 µM (inconclusive) in assay [15] and 15.3 µM (active) in assay [17].
On to `CC(=O)c1c(C(C)=O)c(C)n(Cc2ccc3c(c2)OCO3)c1C`, for which, in assay [18], the EC50 is > 32 µM (inactive).
As for `CCCCn1c(=O)[nH]c2nc3cc(NC(C)=O)ccc3nc2c1=O`, the results for the IC50 (at Protein Rev; in [16]) were 6.5 µM (active) and 0.84 µM (active), respectively.
For `CCCCOc1cccc(C2C(C(=O)c3ccc4c(c3)OCCO4)=C(O)C(=O)N2CCN2CCOCC2)c1` (stereo not given), in assay [19], the IC50 is > 100 µM (inactive).
In the case of `O=C1/C(=C\c2cccc([N+](=O)[O-])c2O)SC(=S)N1Cc1ccccc1`, the figures for the EC50 (in [1]; in the assay on HEK293 [9]) were 9.56 µM (active) and 5.91 µM (active), respectively. Further, the IC50 with HEK293 [2] is 18.9 µM (active); in the assay with HEK293 [3] it was > 20 µM (inactive); on Nonstructural protein 1, 16.4 µM (active); in the assay on HEK293 [5], 4.7 µM (inactive). Further, in the assay with Vero [20], the CC50 was 22.8 µM (active).
Regarding `COC(=O)c1cc(-c2ccc(OC)cc2)on1`, in assay [21], the AC50 is 0.67 µM (active). Moreover, in the assay “cells”, the IC50 is 3.5 µM (active).
Consider `O=C(Nc1ccc(Cl)c(Cl)c1)N(Cc1cccnc1)Cc1ccco1`, for which the EC50 was > 32 µM (inactive) in assay [18], 0.552 µM (active) in assay [7] and > 60 µM (not active) in [8].
In the case of `CN1CCN(C2Cc3ccccc3Sc3cc(C(F)(F)F)ccc32)CC1` (stereo not given), the CC50 in [11] was > 20 µM (active); in assay [12], > 20 µM (active); in [13] it was 17.4 µM (active); in assay [23] it was 17.9 µM (active). Besides, the AC50 in assay [22] was 6.72 µM (active). The IC50 in the assay “cells” is 14.9 µM (active).
Regarding `CCC(c1ccccc1)C(CC)c1cc(O)c(O)c(O)c1` (stereo not given), the IC50 on Genome polyprotein is 39.4 µM (active); on Hexokinase HKDC1, 18.3 µM (active).
For `CCC(C)NC(=O)c1c(N)n(/N=C/c2cccnc2)c2nc3ccccc3nc12` (stereo not given), the values for the EC50 (in assay [24]; on Melanocortin receptor 4) were > 40 µM (inactive) and > 89.2 µM (inactive), respectively.
